Assay results published in ChEMBL document CHEMBL1201861, “Genomics of Drug Sensitity in Cancer screening data, Wellcome Trust Sanger Institute”.

Columns and labels:
[1] = tested on: COR-L23; assay: cells; type: functional, cell-based; details: Homo sapiens;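 also: cell viability assay measuring how strongly compounds suppress growth of COR-L23 cells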
Description: SANGER: Inhibition of human COR-L23 cell growth in a cell viability assay.

[2] = tested on: DMS-153; assay: cells; type: functional, cell-based; details: Homo sapiens
Description: SANGER: Inhibition of human DMS-153 cell growth in a cell viability assay.

[3] = tested on: G-402; assay: cells; type: functional, cell-based; details: Homo sapiens
Description: SANGER: Inhibition of human G-402 cell growth in a cell viability assay.

[4] = tested on: GP5d; assay: cells; type: functional, cell-based; details: Homo sapiens;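 also: growth inhibition of human GP5d cells, read out with a cell viability assay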
Description: SANGER: Inhibition of human GP5d cell growth in a cell viability assay.

[5] = tested on: HCC1569; assay: cells; type: functional, cell-based; details: Homo sapiens;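 also: growth inhibition of human HCC1569 cells, read out with a cell viability assay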
Description: SANGER: Inhibition of human HCC1569 cell growth in a cell viability assay.

[6] = tested on: HEC-1; assay: cells; type: functional, cell-based; details: Homo sapiens;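 also: growth inhibition of the cell line, read out with a cell viability assay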
Description: SANGER: Inhibition of human HEC-1 cell growth in a cell viability assay.

[7] = tested on: HSC-3; assay: cells; type: functional, cell-based; details: Homo sapiens
Description: SANGER: Inhibition of human HSC-3 cell growth in a cell viability assay.

[8] = tested on: HT-1376; assay: cells; type: functional, cell-based; details: Homo sapiens
Description: SANGER: Inhibition of human HT-1376 cell growth in a cell viability assay.

[9] = tested on: HuO9; assay: cells; type: functional, cell-based; details: Homo sapiens;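 also: growth inhibition of HuO9 cells, read out with a cell viability assay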
Description: SANGER: Inhibition of human HuO9 cell growth in a cell viability assay.

[10] = tested on: IGROV-1; assay: cells; type: functional, cell-based; details: Homo sapiens;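 also: reduction of IGROV-1 cell growth, read out with a viability assay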
Description: SANGER: Inhibition of human IGROV-1 cell growth in a cell viability assay.

[11] = tested on: IMR-5; assay: cells; type: functional, cell-based; details: Homo sapiens;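 also: growth inhibition of human IMR-5 cells, read out with a cell viability assay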
Description: SANGER: Inhibition of human IMR-5 cell growth in a cell viability assay.

[12] = tested on: JEG-3; assay: cells; type: functional, cell-based; details: Homo sapiens;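 also: growth inhibition of human JEG-3 cells, read out with a cell viability assay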
Description: SANGER: Inhibition of human JEG-3 cell growth in a cell viability assay.

[13] = tested on: KARPAS-422; assay: cells; type: functional, cell-based; details: Homo sapiens
Description: SANGER: Inhibition of human KARPAS-422 cell growth in a cell viability assay.

[14] = tested on: Kasumi 1; assay: cells; type: functional, cell-based; details: Homo sapiens;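 also: growth inhibition of human Kasumi-1 cells, read out by a cell viability assay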
Description: SANGER: Inhibition of human KASUMI-1 cell growth in a cell viability assay.

[15] = tested on: KYSE-410; assay: cells; type: functional, cell-based; details: Homo sapiens;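 also: growth inhibition of KYSE-410 cells, measured through a cell viability readout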
Description: SANGER: Inhibition of human KYSE-410 cell growth in a cell viability assay.

[16] = tested on: KYSE-520 cell line; assay: cells; type: functional, cell-based; details: Homo sapiens;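 also: growth inhibition of human KYSE-520 cells, read out with a viability assay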
Description: SANGER: Inhibition of human KYSE-520 cell growth in a cell viability assay.

[17] = tested on: LB996-RCC; assay: cells; type: functional, cell-based; details: Homo sapiens
Description: SANGER: Inhibition of human LB996-RCC cell growth in a cell viability assay.

[18] = tested on: LK-2; assay: cells; type: functional, cell-based; details: Homo sapiens;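 also: growth inhibition of LK-2 cells, read out with a viability assay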
Description: SANGER: Inhibition of human LK-2 cell growth in a cell viability assay.

[19] = tested on: LN-405; assay: cells; type: functional, cell-based; details: Homo sapiens
Description: SANGER: Inhibition of human LN-405 cell growth in a cell viability assay.

[20] = tested on: LP-1; assay: cells; type: functional, cell-based; details: Homo sapiens;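 also: growth inhibition of human LP-1 cells, with the read-out taken from a cell viability assay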
Description: SANGER: Inhibition of human LP-1 cell growth in a cell viability assay.

[21] = tested on: LU-99A; assay: cells; type: functional, cell-based; details: Homo sapiens;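 also: growth inhibition of LU-99A cells, read out with a cell viability assay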
Description: SANGER: Inhibition of human LU-99A cell growth in a cell viability assay.

[22] = tested on: M14; assay: cells; type: functional, cell-based; details: Homo sapiens;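 also: growth inhibition of M14 cells, read out with a cell viability assay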
Description: SANGER: Inhibition of human M14 cell growth in a cell viability assay.

[23] = tested on: MCF7; assay: cells; type: functional, cell-based; details: Homo sapiens;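 also: growth inhibition of human MCF7 cells, read out with a cell viability assay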
Description: SANGER: Inhibition of human MCF7 cell growth in a cell viability assay.

[24] = tested on: MKN-28; assay: cells; type: functional, cell-based; details: Homo sapiens;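 also: cell viability assay read-out, IC50 reflects suppression of growth of human MKN-28 cells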
Description: SANGER: Inhibition of human MKN28 cell growth in a cell viability assay.

[25] = tested on: NCI-H1437; assay: cells; type: functional, cell-based; details: Homo sapiens;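 also: growth inhibition of human NCI-H1437 cells, read out by a cell viability assay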
Description: SANGER: Inhibition of human NCI-H1437 cell growth in a cell viability assay.

[26] = tested on: NCI-H1694; assay: cells; type: functional, cell-based; details: Homo sapiens;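 also: cell viability assay measuring inhibition of growth in human NCI-H1694 cells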
Description: SANGER: Inhibition of human NCI-H1694 cell growth in a cell viability assay.

[27] = tested on: NCI-H2342; assay: cells; type: functional, cell-based; details: Homo sapiens;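 also: growth inhibition of the cancer cell line, determined with a cell viability assay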
Description: SANGER: Inhibition of human NCI-H2342 cell growth in a cell viability assay.

[28] = tested on: NCI-H28; assay: cells; type: functional, cell-based; details: Homo sapiens;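 also: growth inhibition of human NCI-H28 cells, read out as cell viability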
Description: SANGER: Inhibition of human NCI-H28 cell growth in a cell viability assay.

[29] = tested on: NCI-H441; assay: cells; type: functional, cell-based; details: Homo sapiens;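 also: growth inhibition of NCI-H441 cells, read out with a cell viability assay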
Description: SANGER: Inhibition of human NCI-H441 cell growth in a cell viability assay.

[30] = tested on: NCI-H661; assay: cells; type: functional, cell-based; details: Homo sapiens;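 also: cell viability assay read-out, IC50 being the concentration that inhibits growth of the cells by half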
Description: SANGER: Inhibition of human NCI-H661 cell growth in a cell viability assay.

[31] = tested on: NCI-H719; assay: cells; type: functional, cell-based; details: Homo sapiens;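 also: growth inhibition of the cultured cell line, read out with a viability assay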
Description: SANGER: Inhibition of human NCI-H719 cell growth in a cell viability assay.

[32] = tested on: OPM-2; assay: cells; type: functional, cell-based; details: Homo sapiens;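 also: growth of OPM-2 cells measured with a viability assay, IC50 for suppression of proliferation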
Description: SANGER: Inhibition of human OPM-2 cell growth in a cell viability assay.

[33] = tested on: OVCAR-3; assay: cells; type: functional, cell-based; details: Homo sapiens;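 also: growth inhibition of human OVCAR-3 cells, determined by a cell viability assay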
Description: SANGER: Inhibition of human OVCAR-3 cell growth in a cell viability assay.

[34] = tested on: PA-1; assay: cells; type: functional, cell-based; details: Homo sapiens;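 also: IC50 for suppression of PA-1 cell proliferation, determined with a cell viability read-out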
Description: SANGER: Inhibition of human PA-1 cell growth in a cell viability assay.

[35] = tested on: PANC-03-27; assay: cells; type: functional, cell-based; details: Homo sapiens
Description: SANGER: Inhibition of human PANC-03-27 cell growth in a cell viability assay.

[36] = tested on: PC-14; assay: cells; type: functional, cell-based; details: Homo sapiens;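 also: cell viability assay measuring inhibition of PC-14 cell growth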
Description: SANGER: Inhibition of human PC-14 cell growth in a cell viability assay.

[37] = tested on: PC-3; assay: cells; type: functional, cell-based; details: Homo sapiens;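 also: cell viability assay measuring growth inhibition of PC-3 cells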
Description: SANGER: Inhibition of human PC-3 cell growth in a cell viability assay.

[38] = tested on: RL; assay: cells; type: functional, cell-based; details: Homo sapiens
Description: SANGER: Inhibition of human RL cell growth in a cell viability assay.

[39] = tested on: RPMI-2650; assay: cells; type: functional, cell-based; details: Homo sapiens
Description: SANGER: Inhibition of human RPMI-2650 cell growth in a cell viability assay.

[40] = tested on: S-117; assay: cells; type: functional, cell-based; details: Homo sapiens
Description: SANGER: Inhibition of human S-117 cell growth in a cell viability assay.

[41] = tested on: SAS; assay: cells; type: functional, cell-based; details: Homo sapiens;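 also: growth inhibition of SAS cells, read out with a cell viability assay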
Description: SANGER: Inhibition of human SAS cell growth in a cell viability assay.

[42] = tested on: SCC-4; assay: cells; type: functional, cell-based; details: Homo sapiens;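 also: growth inhibition of human SCC-4 cells, read out as cell viability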
Description: SANGER: Inhibition of human SCC-4 cell growth in a cell viability assay.

[43] = tested on: SK-LU-1; assay: cells; type: functional, cell-based; details: Homo sapiens;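 also: cell viability assay measuring growth inhibition of human SK-LU-1 cells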
Description: SANGER: Inhibition of human SK-LU-1 cell growth in a cell viability assay.

[44] = tested on: SK-MEL-28; assay: cells; type: functional, cell-based; details: Homo sapiens;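 also: growth inhibition of human SK-MEL-28 cells, read out with a cell viability assay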
Description: SANGER: Inhibition of human SK-MEL-28 cell growth in a cell viability assay.

[45] = tested on: SK-MEL3; assay: cells; type: functional, cell-based, SK-MEL-3; details: Homo sapiens;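 also: growth inhibition of human SK-MEL-3 cells, read out with a cell viability assay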
Description: SANGER: Inhibition of human SK-MEL-3 cell growth in a cell viability assay.

[46] = tested on: SW1990; assay: cells; type: functional, cell-based; details: Homo sapiens
Description: SANGER: Inhibition of human SW1990 cell growth in a cell viability assay.

[47] = tested on: SW626; assay: cells; type: functional, cell-based; details: Homo sapiens;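 also: growth inhibition of SW626 cells, measured with a cell viability assay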
Description: SANGER: Inhibition of human SW626 cell growth in a cell viability assay.

[48] = tested on: SW780; assay: cells; type: functional, cell-based; details: Homo sapiens;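 also: growth inhibition of the cells, read out with a cell viability assay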
Description: SANGER: Inhibition of human SW780 cell growth in a cell viability assay.

[49] = tested on: SAOS-2; assay: cells; type: functional, cell-based; details: Homo sapiens;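 also: growth inhibition of human Saos-2 cells determined by a cell viability assay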
Description: SANGER: Inhibition of human Saos-2 cell growth in a cell viability assay.

[50] = tested on: 5637; assay: cells; type: functional, cell-based; details: Homo sapiens
Description: SANGER: Inhibition of human 5637 cell growth in a cell viability assay.

[51] = tested on: 639-V; assay: cells; type: functional, cell-based; details: Homo sapiens;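 also: growth inhibition of 639-V cells, read out with a cell viability assay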
Description: SANGER: Inhibition of human 639-V cell growth in a cell viability assay.

[52] = tested on: 647-V; assay: cells; type: functional, cell-based; details: Homo sapiens;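 also: growth inhibition of 647-V cells, read out with a cell viability assay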
Description: SANGER: Inhibition of human 647-V cell growth in a cell viability assay.

[53] = tested on: 8505C; assay: cells; type: functional, cell-based; details: Homo sapiens
Description: SANGER: Inhibition of human 8505C cell growth in a cell viability assay.

[54] = tested on: A-375; assay: cells; type: functional, cell-based; details: Homo sapiens;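 also: growth inhibition of A375 cells, read out with a cell viability assay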
Description: SANGER: Inhibition of human A375 cell growth in a cell viability assay.

[55] = tested on: ACHN; assay: cells; type: functional, cell-based; details: Homo sapiens;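 also: cell viability read-out used to gauge how strongly growth of human ACHN cells is suppressed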
Description: SANGER: Inhibition of human ACHN cell growth in a cell viability assay.

[56] = tested on: BC1 cell line; assay: SANGER: Inhibition of human BC-1 cell growth in a cell viability assay.; type: functional, cell-based
[57] = tested on: BL-70; assay: SANGER: Inhibition of human BL-70 cell growth in a cell viability assay.; type: functional, cell-based
[58] = tested on: CA46; assay: cells; type: functional, cell-based; details: Homo sapiens;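 also: growth inhibition of human CA46 cells, read out by a cell viability assay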
Description: SANGER: Inhibition of human CA46 cell growth in a cell viability assay.

[59] = tested on: CAL-12T; assay: cells; type: functional, cell-based, Homo sapiens; details: Homo sapiens, CAL-12T;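 also: growth inhibition of human CAL-12T cells, read out with a cell viability assay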
Description: SANGER: Inhibition of human CAL-12T cell growth in a cell viability assay.

[60] = tested on: CAMA-1; assay: cells; type: functional, cell-based; details: Homo sapiens;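 also: growth inhibition of CAMA-1 cells, read out with a cell viability assay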
Description: SANGER: Inhibition of human CAMA-1 cell growth in a cell viability assay.

[61] = tested on: CESS; assay: SANGER: Inhibition of human CESS cell growth in a cell viability assay.; type: functional, cell-based
[62] = tested on: CHL-1; assay: cells; type: functional, cell-based; details: Homo sapiens;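 also: cell growth inhibition, read out with a cell viability assay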
Description: SANGER: Inhibition of human CHL-1 cell growth in a cell viability assay.

[63] = tested on: CHP-126; assay: cells; type: functional, cell-based; details: Homo sapiens
Description: SANGER: Inhibition of human CHP-126 cell growth in a cell viability assay.

[64] = tested on: COLO-678; assay: cells; type: functional, cell-based; details: Homo sapiens
Description: SANGER: Inhibition of human COLO-678 cell growth in a cell viability assay.

[65] = tested on: COLO-680N; assay: cells; type: functional, cell-based; details: Homo sapiens;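 also: cell viability assay used to measure inhibition of COLO-680N cell growth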
Description: SANGER: Inhibition of human COLO-680N cell growth in a cell viability assay.

CC(C)=CC[C@@H](O)C1=CC(=O)c2c(O)ccc(O)c2C1=O [SHIKONIN]
IC50 [1]: 301 nM
IC50 [2]: > 16000 nM
IC50 [3]: 882 nM
IC50 [4]: 1340 nM
IC50 [5]: 810 nM
IC50 [6]: 1130 nM
IC50 [7]: 337 nM
IC50 [8]: 915 nM
IC50 [9]: 1660 nM
IC50 [10]: 55.6 nM
IC50 [11]: 589 nM
IC50 [12]: 3170 nM
IC50 [13]: > 16000 nM
IC50 [14]: 124 nM
IC50 [15]: 752 nM
IC50 [16]: 598 nM
IC50 [17]: > 16000 nM
IC50 [18]: 8570 nM
IC50 [19]: 6910 nM
IC50 [20]: 686 nM
IC50 [21]: 1300 nM
IC50 [22]: 1490 nM
IC50 [23]: 435 nM
IC50 [24]: 617 nM
IC50 [25]: 1560 nM
IC50 [26]: 840 nM
IC50 [27]: 134 nM
IC50 [28]: 1010 nM
IC50 [29]: 15800 nM
IC50 [30]: 5430 nM
IC50 [31]: 2610 nM
IC50 [32]: 343 nM
IC50 [33]: 383 nM
IC50 [34]: 201 nM
IC50 [35]: 167 nM
IC50 [36]: 1510 nM
IC50 [37]: 859 nM
IC50 [38]: > 16000 nM
IC50 [39]: 375 nM
IC50 [40]: 387 nM
IC50 [41]: 854 nM
IC50 [42]: 441 nM
IC50 [43]: 750 nM
IC50 [44]: > 16000 nM
IC50 [45]: 2640 nM
IC50 [46]: 1620 nM
IC50 [47]: 635 nM
IC50 [48]: 406 nM
IC50 [49]: 2370 nM
IC50 [50]: > 16000 nM
IC50 [51]: 265 nM
IC50 [52]: 359 nM
IC50 [53]: 3100 nM
IC50 [54]: 311 nM
IC50 [55]: 146 nM
IC50 [56]: 2680 nM
IC50 [57]: 278 nM
IC50 [58]: 192 nM
IC50 [59]: 1900 nM
IC50 [60]: 1520 nM
IC50 [61]: 776 nM
IC50 [62]: 168 nM
IC50 [63]: 695 nM
IC50 [64]: 1630 nM
IC50 [65]: 590 nM
